Assay results as given in patent US11459313B2, “Aziridinyl and amino dimeric naphthoquinone compounds and use for acute myeloid leukemia” (University of Maryland, Baltimore, priority 2016, dated 2022).
Read-outs that look alike come from different tables or passages of the source.

Columns and labels:
[1] = tested on: MOLM-14 cells; assay: WST-1 cell proliferation assay, MOLM-14; assay type: cell-based, human
Protocol: (§1) Cell lines were seeded into 96-well plates the afternoon prior to treatment. Approximately 18 hours later, bis and mono-aziridine dimeric naphthoquinone compounds were semi-serially diluted in dimethyl sulfoxide (DMSO) and then growth medium, and added to cells. Plates were incubated for 72 hours prior to addition of WST-1 (Promega®). Plates were read after 4 additional hours of incubation at 37° C. using a Bio-Tek Synergy® HT plate reader (Bio-Tek®). Data were analyzed and graphed using GraphPad Prism® Software (Graph Pad®).
(§2) Primary AML cells from patients and cell lines were seeded into 96-well plates the afternoon prior to treatment. Eighteen hours later, amino-dimeric naphthoquinone Compounds 106, 101, and 114 were semi-serially diluted in dimethyl sulfoxide (DMSO) and then growth medium, and added to the cells. In order to quantitate proliferation of metabolically active cells, plates were incubated for 72 hours for cell lines and 48 hours for primary AML cells prior to addition of water-soluble tetrazolium (WST-1) (Clontech®). Plates were read after four additional hours of incubation at 37° C. using a Bio-Tek Synergy® HT plate reader (Bio-Tele®). Data were analyzed and graphed using GraphPad Prism® Software (GraphPad®). IC50 was defined as the concentration that decreases viable cell numbers by 50%. IC50 values were calculated as mean±standard deviation from at least two independent experiments. If availability of primary blasts was limited, the IC50 was obtained from a single experiment.
To investigate antiproliferative activity of amino-dimeric naphthoquinones against AML cells, an MTT-like cell proliferation assay was performed in the AML cell lines using WST-1 (water soluble tetrazolium salts; Promega®). MOLM-14 and AML-D cells, as well as normal hematopoietic bone marrow cells from a healthy donor, were exposed to a range of concentrations of Compound 101. Human leukemia cells were cultured in the presence of the compound for 72 hours (48 hours for primary cells) and WST-1 reagent was then added. The cells then were monitored for cell growth or the number of cells proliferating and the IC50 calculated. The IC50 is the concentration at which 50% of the cells are not proliferating compared to control cells treated with vehicle. See FIG. 2A, FIG. 2B, and FIG. 2C for representative graphs of these IC50 determinations.

[2] = tested on: MV4-11 cells; assay: WST-1 cell proliferation assay, MV4-11; assay type: cell-based, human
Protocol: as §1, §2

[3] = tested on: THP-1 cells; assay: WST-1 cell proliferation assay, THP-1; assay type: cell-based; conditions: Homo sapiens
Protocol: as §1, §2

[4] = Homo sapiens, MOLM-14, Table 9, cell proliferation, read-out: IC50 (μM) MOLM-14
[5] = Homo sapiens, MV4-11, Table 9, cell proliferation, read-out: IC50 (μM) MV411
[6] = Homo sapiens, MOLM-14, Table 3, cell proliferation, read-out: MOLM14 IC50
[7] = Homo sapiens, MOLM-14, Table 7, cell proliferation, read-out: IC50 (μM) MOLM-14
[8] = Homo sapiens, MV4-11, Table 3, cell proliferation, read-out: MV411 IC50
[9] = Homo sapiens, MV4-11, Table 7, cell proliferation, read-out: IC50 (μM) MV411
[10] = Homo sapiens, MOLM-14, Table 1, cell proliferation, read-out: MOLM14 IC50
[11] = Homo sapiens, MV4-11, Table 1, cell proliferation, read-out: MV411 IC50
[12] = Homo sapiens, MOLM-14, Table 2, cell proliferation, read-out: MOLM14 IC50
[13] = Homo sapiens, MV4-11, Table 2, cell proliferation, read-out: MV411 IC50
[14] = Table 2, cell proliferation, read-out: MOLM14 IC50
[15] = Table 2, cell proliferation, read-out: MV411 IC50
[16] = Table 1, cell proliferation, read-out: MOLM14 IC50
[17] = Table 1, cell proliferation, read-out: MV411 IC50

Work on `O=C1C(NCCO)=C(C2=C(NCCO)C(=O)c3cc(F)ccc3C2=O)C(=O)c2ccccc21` [Compound 137] yielded an IC50 [1, 4] of 0.37 ± 0.17 µM and an IC50 [2, 5] of 1.16 ± 0.2 µM.
With `CN(CCO)C1=C(C2=C(N(C)CCO)C(=O)c3ccccc3C2=O)C(=O)c2ccccc2C1=O` [Compound 107, 3,3′-bis-[(2-hydroxyethyl)(N-methyl)amino]-2,2′-binaphthalenyl-1,1′,4,4′-tetrone] the IC50 [1, 6] was 5.85 ± 0.64 µM, the IC50 [1, 7] was 6.3 µM and the IC50 [2, 8] was 5.25 ± 0.35 µM. It also gave an IC50 [2, 9] of 5 µM.
`O=C1C(C2=C(N3CCN(CCOCCO)CC3)C(=O)c3ccccc3C2=O)=C(N2CCN(CCOCCO)CC2)C(=O)c2ccccc21` [Compound 110, 3,3′-bis(4-(2-(2-hydroxyethoxy)ethyl)piperazin-1-yl)-[2,2′-binaphthalene]-1,1′,4,4′-tetrone] was tested, and the IC50 [1, 6] was 1.9 ± 0.32 µM and the IC50 [2, 8] was 140 ± 0.91 µM.
With `O=C1C(NCCO)=C(C2=C(NCCO)C(=O)c3cc(F)ccc3C2=O)C(=O)c2ccccc21` [Compound 105, 3,3′-bis(2-hydroxyethylamino)-6-fluoro-2,2′-binaphthyl-1,1′,4,4′-tetrone] the IC50 [1, 6] was 1.3 ± 0.23 µM and the IC50 [2, 8] was 2.05 ± 0.4 µM.
Molecule `O=C1C(NCCO)=C(C2=C(NCCO)C(=O)c3ccccc3C2=O)C(=O)c2ccccc21` [Compound 115] has an IC50 [1, 4] of 0.15 ± 0.01 µM and an IC50 [2, 5] of 0.2 ± 0.02 µM.
`O=C1C(Cl)=C(C2=C(NCCO)C(=O)c3ccccc3C2=O)C(=O)c2ccccc21` [Compound 125, 3-chloro-3′-[(2-hydroxyethyl)amino]-2,2′-binaphthalenyl-1,1′,4,4′-tetrone] was tested, and the IC50 [1, 10] was 2.2 µM, the IC50 [1, 7] was 2.2 µM and the IC50 [2, 11] was 1.2 µM. It also gave an IC50 [2, 9] of 1.2 µM.
`CN(CCO)C1=C(C2=C(N(C)CCO)C(=O)c3ccccc3C2=O)C(=O)c2ccccc2C1=O` [Compound 118] showed an IC50 [1, 4] of 5.8 ± 0.6 µM and an IC50 [2, 5] of 5.25 ± 0.3 µM.
Work on `CN(C)CCN(C)C1=C(C2=C(Cl)C(=O)c3ccccc3C2=O)C(=O)c2ccccc2C1=O` [Compound 124, 3-chloro-3′((2-(dimethylamino)ethyl)(methyl)amino)-[2,2′-binaphthalene]-1,1′,4,4′-tetrone] yielded an IC50 [1, 10] of 2.8 ± 0.01 µM, an IC50 [1, 7] of 2.8 µM and an IC50 [2, 11] of 1.3 ± 1 µM. For the same molecule, the IC50 [2, 9] was 1.3 µM.
`CC(O)CNC1=C(C2=C(NCC(C)O)C(=O)c3ccccc3C2=O)C(=O)c2ccccc2C1=O` (stereo not shown) [Compound 112] showed an IC50 [1, 6] of 1.49 ± 0.46 µM and an IC50 [2, 8] of 3.94 ± 2.23 µM.
Work on `O=C1C(Cl)=C(C2=C(N3CCN(CCO)CC3)C(=O)c3ccccc3C2=O)C(=O)c2ccccc21` [Compound 126, 3-chloro-3′-[(4-hydroxyethyl)piperazinyl]-2,2′-binaphthalenyl-1,1′,4,4′-tetrone] yielded an IC50 [1, 10] of 0.85 ± 0.25 µM, an IC50 [1, 7] of 0.6 µM and an IC50 [2, 11] of 0.76 ± 0.36 µM. It also gave an IC50 [2, 9] of 0.5 µM.
`O=C1C(C2=C(N3CCN(CCO)CC3)C(=O)c3ccccc3C2=O)=C(N2CCN(CCO)CC2)C(=O)c2ccccc21` [Compound 116] was tested, and the IC50 [1, 4] was 1.17 µM and the IC50 [2, 5] was 1.65 µM.
With `CN(C)C1=C(C2=C(Cl)C(=O)c3ccccc3C2=O)C(=O)c2ccccc2C1=O` [Compound 123, 3-chloro-3′-(dimethylamino)-2,2′-binaphthalenyl-1,1′,4,4′-tetrone] the IC50 [1, 10] was 3 ± 1.42 µM, the IC50 [1, 7] was 3 µM and the IC50 [2, 11] was 2.4 ± 2 µM. The IC50 [2, 9] was 2.4 µM.
For `CN(C)C1=C(C2=C(N(C)C)C(=O)c3ccccc3C2=O)C(=O)c2ccccc2C1=O` [Compound 120, 3,3′-bis-(2-dimethylamino)-2,2′-biuaphthalenyl-1,1′,4,4′-tetrone], the IC50 [1, 12] was 2.8 ± 0.91 µM, the IC50 [1, 7] was 2.9 µM and the IC50 [2, 13] was 2.15 ± 0.64 µM. It also gave an IC50 [2, 9] of 2.4 µM.
Molecule `CN(C)CCNC1=C(C2=C(NCCN(C)C)C(=O)c3ccccc3C2=O)C(=O)c2ccccc2C1=O` [Compound 103, 3,3′-bis({[2-(dimethylamino)ethyl]amino})-[2,2′-binaphthalene]-1,1′,4,4′-tetrone] has an IC50 [1, 12] of 0.12 µM and an IC50 [2, 13] of 0.49 µM.
`CC(=O)OCCNC1=C(C2=C(NCCOC(C)=O)C(=O)c3ccccc3C2=O)C(=O)c2ccccc2C1=O` [Compound 119] gave an IC50 [1, 4] of 1 µM and an IC50 [2, 5] of 2.2 ± 0.7 µM.
Molecule `CN(C)C1=C(C2=C(N(C)C)C(=O)c3ccccc3C2=O)C(=O)c2ccccc2C1=O` [Compound 135] has an IC50 [1, 4] of 2.8 ± 0.9 µM and an IC50 [2, 5] of 2.2 ± 0.6 µM.
In the case of `O=C1C(C2=C(N3CCC(O)CC3)C(=O)c3ccccc3C2=O)=C(N2CCC(O)CC2)C(=O)c2ccccc21` [Compound 122, 3,3′-bis-(4-hydroxypiperidinyl)-2,2′-binaphthalenyl-1,1′,4,4′-tetrone], the IC50 [1, 14] is reported as 4.3 ± 2.12 µM and the IC50 [2, 15] is reported as 2.5 µM.
`O=C1C(C2=C(N3CCN(CCO)CC3)C(=O)c3ccccc3C2=O)=C(N2CCN(CCO)CC2)C(=O)c2ccccc21` [Compound 121, 3,3′-bis[4-(2-hydroxyethyl)piperazin-1-yl]-4a,5a-dihydro-[2,2′-binaphthalene]-1,1′,4,4′-tetrone] gave an IC50 [1, 14] of 1.17 µM and an IC50 [2, 15] of 1.65 µM.
Molecule “3-chloro-3′-hydroxy dimeric naphthoquinone [Compound 144, reference compound]” has an IC50 [1, 16] of 6.5 ± 0.28 µM, an IC50 ([1]; Table 7, cell proliferation, read-out: IC50 (μM) MOLM-14) of 6.3 µM and an IC50 [2, 17] of 3 ± 0.07 µM. It also gave an IC50 ([2]; Table 7, cell proliferation, read-out: IC50 (μM) MV411) of 3 µM.
Work on `COCCN(C)C1=C(C2=C(N(C)CCOC)C(=O)c3ccccc3C2=O)C(=O)c2ccccc2C1=O` [Compound 108, 3,3′-bis-[(2-methoxyethyl)(N-methyl)amino]-2,2′-binaphthalenyl-1,1′,4,4′-tetrone] yielded an IC50 [1, 6] of 5.55 ± 0.78 µM, an IC50 [1, 7] of 6.1 µM and an IC50 [2, 8] of 5.5 ± 0.71 µM. It also gave an IC50 [2, 9] of 6 µM.
`O=C1C(Cl)=C(C2=C(Cl)C(=O)c3cc(Br)ccc3C2=O)C(=O)c2ccccc21` [Compound 139] was tested, and the IC50 [1, 7] was 7.1 µM and the IC50 [2, 9] was 5 µM.
`CN(C)C1=C(C2=C(N(C)C)C(=O)c3ccccc3C2=O)C(=O)c2ccccc2C1=O` [Compound 114, 3,3′-bis(dimethylamino)-[2,2′-binaphthalene]-1,1′,4,4′-tetrone] gave an IC50 ([2]; Homo sapiens, MV4-11, Example 5 text, unit inferred, read-out: IC50 against MV4-11) of 2.4 ± 0.3 µM.
Molecule “3-chloro-3′-(4-hydroxypiperidinyl)-2,2′-binaphthalenyl-1,1′,4,4′-tetrone [Compound 127]” has an IC50 [1, 16] of 3.6 ± 0.63 µM and an IC50 [2, 17] of 2.1 ± 0.56 µM.
Molecule `COc1ccc2c(c1)C(=O)C(NCCO)=C(C1=C(NCCO)C(=O)c3ccccc3C1=O)C2=O` [Compound 104, 3,3′-bis(2-hydroxyethylamino)-6-methoxy-2,2′-binaphthalenyl-1,1′,4,4′-tetrone] has an IC50 [1, 6] of 0.37 ± 0.17 µM, an IC50 [1, 4] of 1.32 ± 0.23 µM and an IC50 [2, 8] of 1.16 ± 0.2 µM. For the same molecule, the IC50 [2, 5] was 2.05 ± 0.4 µM.
In the case of `O=C1C(Cl)=C(C2=C(N3CC3)C(=O)c3ccccc3C2=O)C(=O)c2ccccc21` [Compound 106, 3-(aziridin-1-yl)-3′-chloro-[2,2′-binaphthalene]-1,1′ 4,4′-tetrone], the IC50 ([3]; THP-1, read-out: IC50 THP1 (n)) is reported as 7.7 ± 1.3 µM, the IC50 ([3]; THP-1, read-out: IC50 THP-1) is reported as 7.7 ± 1.3 µM and the IC50 ([1]; Homo sapiens, MOLM-14, read-out: IC50 MOLM-14) is reported as 3.9 ± 1 µM. The IC50 ([1]; Homo sapiens, MOLM-14, read-out: IC50 MOLM-14 (n)) was 3.9 ± 1 µM.
Work on `CC(=O)OCCNC1=C(C2=C(NCCOC(C)=O)C(=O)c3ccccc3C2=O)C(=O)c2ccccc2C1=O` [Compound 109, 3,3′bis-[(2-acyloxyethyl)amino]-2,2′-binaphthalenyl-1, -1′,4,4′-tetrone] yielded an IC50 [1, 6] of 1 µM and an IC50 [2, 8] of 2.2 ± 0.74 µM.
In the case of `O=C1C(C2=C(N3CCC(O)CC3)C(=O)c3ccccc3C2=O)=C(N2CCC(O)CC2)C(=O)c2ccccc21` [Compound 117], the IC50 [1, 4] is reported as 4.3 ± 2.1 µM and the IC50 [2, 5] is reported as 2.5 µM.
